Source: US9409952B2, “Peptide-compound cyclization method” (Chugai Seiyaku Kabushiki Kaisha, priority 2011, dated 2016)
Read-outs that look alike come from different tables or passages of the source. Starred links: 1 amine or outer side, 2 acyl side, 3 side chain; linkers in the order of their positions; H or OH if unused. Non-standard residues stand in square brackets, D forms with d. Residues, ends and D or L forms follow the SMILES beside them. *: point of attachment. Phe(4-CF3) = N[C@@H](Cc1ccc(C(F)(F)F)cc1)C(=O)O; NMePhe(3-Cl) = CN[C@@H](Cc1cccc(Cl)c1)C(=O)O; NMeF = CN[C@@H](Cc1ccccc1)C(=O)O; NMeGABA = CN(CCCC(=O)[*:2])[*:1]; NMeI = CC[C@H](C)[C@H](NC)C(=O)O; NMeβAla = CN(CCC(=O)[*:2])[*:1]; Aoc(2) = CCCCCC[C@H](N)C(=O)O; NMeL = CN[C@@H](CC(C)C)C(=O)O; NMeV = CN[C@H](C(=O)O)C(C)C; NMeA = CN[C@@H](C)C(=O)O; dNMeA = CN[C@H](C)C(=O)O; β3hA = C[C@H](N)CC(=O)O; Sar = CNCC(=O)O; tBu = CC(C)(C)*

How the values were obtained:
[1] = PAMPA (parallel artificial membrane permeability assay); format: in vitro ADME; settings: PAMPA
Summary of the method: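 Artificial membrane was 10% (w/v) egg lecithin plus 0.5% (w/v) cholesterol in dodecane on a PVDF filter. A 10 mM DMSO stock was added at 0.5% (v/v) to donor buffer (50 mM MOPSO, pH 6.5, 5.0% glycocholic acid). After 18 h at 37 °C, LC/MS or LC/UV gave donor and acceptor levels for Pe.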

[2] = Metabolic stability in human hepatic microsome; format: in vitro ADME; settings: microsomes

Row | Papp at 18 hours, 50 µM ([1]; pH 6.5) | microsomal CLint at 1 uM ([2]; human, pH 7.4, CL NADPH(+)) | Compound | Papp at 18 hours, 50 µM ([1]; membrane permeation rate (Pe), 50 mM MOPSO buffer pH 6.5 with 5.0% glycocholic acid, 37° C., 18 hours, read-out: iPAMPA Pe) | microsomal CLint at 1 uM ([2]; pH 7.4, human hepatic microsome, NADPH(+), read-out: CL NADPH(+))
1 | 3 ×10⁻⁶ cm/s | 13 µL/min/mg | CC(C)C[C@H]1C(=O)N[C@@H](C)C(=O)N(C)[C@@H](C)C(=O)N[C@@H](C)CC(=O)N(C)[C@@H](C)C(=O)N[C@@H]([C@@H](C)O)C(=O)N(C)CC(=O)N(C)[C@@H](Cc2ccccc2)C(=O)N(C)[C@@H](Cc2ccccc2)C(=O)N(C)[C@@H](C)C(=O)N2CCC[C@H]2C(=O)N1C [DP-765] (cyclo(A[NMeA][β3hA][NMeA]T[Sar][NMeF][NMeF][NMeA]P[NMeL])) | – | –
2 | 13 ×10⁻⁶ cm/s | 54 µL/min/mg | CC(C)C[C@H]1C(=O)N(C)[C@@H](C)C(=O)N(C)[C@@H](C)C(=O)N(C)[C@@H](Cc2ccccc2)C(=O)N[C@@H]([C@@H](C)O)C(=O)N(C)[C@@H](Cc2ccccc2)C(=O)N(C)[C@@H](CC(C)C)C(=O)N2CCC[C@H]2C(=O)N[C@@H](C)CC(=O)N[C@@H](C)C(=O)NCC(=O)N1C [DP-766] (cyclo(AG[NMeL][NMeA][NMeA][NMeF]T[NMeF][NMeL]P[β3hA])) | – | –
3 | 30 ×10⁻⁶ cm/s | 34 µL/min/mg | CC[C@H](C)[C@H]1C(=O)N(C)[C@@H](C)C(=O)N(C)[C@@H](Cc2ccccc2)C(=O)N[C@@H]([C@@H](C)O)C(=O)N(C)[C@@H](Cc2ccccc2)C(=O)N(C)[C@@H](CC(C)C)C(=O)N2CCC[C@H]2C(=O)N[C@@H](C)CC(=O)N[C@@H](C)C(=O)NCC(=O)N(C)[C@@H](CC(C)C)C(=O)N1C [DP-767] (cyclo(AG[NMeL][NMeI][NMeA][NMeF]T[NMeF][NMeL]P[β3hA])) | – | –
4 | 25 ×10⁻⁶ cm/s | 34 µL/min/mg | CC(C)C[C@H]1C(=O)N2CCC[C@H]2C(=O)N(C)[C@@H](CC(C)C)C(=O)N[C@@H](C)C(=O)N(C)[C@@H](C(C)C)C(=O)N[C@@H](C)CC(=O)N(C)[C@@H](C)C(=O)N[C@@H]([C@@H](C)O)C(=O)N(C)CC(=O)N(C)[C@@H](Cc2ccccc2)C(=O)N(C)[C@@H](Cc2ccccc2)C(=O)N1C [DP-768] (cyclo(A[NMeV][β3hA][NMeA]T[Sar][NMeF][NMeF][NMeL]P[NMeL])) | – | –
5 | 53 ×10⁻⁶ cm/s | 78 µL/min/mg | CC[C@H](C)[C@@H]1NC(=O)[C@H](C)N(C)C(=O)[C@H]([C@@H](C)O)NC(=O)[C@H](C(C)C)N(C)C(=O)[C@H](CC(C)C)NC(=O)[C@H](CC(C)C)N(C)C(=O)[C@@H](C)N(C)C(=O)C[C@H](C)NC(=O)[C@H](Cc2ccccc2)NC(=O)[C@H](C)NC(=O)[C@H](Cc2ccccc2)N(C)C1=O [DP-769] (cyclo(AF[β3hA][dNMeA][NMeL]L[NMeV]T[NMeA]I[NMeF])) | – | –
6 | 33 ×10⁻⁶ cm/s | 95 µL/min/mg | CC[C@H](C)[C@@H]1NC(=O)[C@H](CC(C)C)N(C)C(=O)[C@H](C(C)C)N(C)C(=O)[C@H](C)NC(=O)[C@H](C)N(C)C(=O)[C@H](Cc2ccccc2)NC(=O)[C@H]([C@@H](C)O)NC(=O)[C@H](CC(C)C)N(C)C(=O)[C@H](CC(C)C)N(C)C(=O)[C@H](C)N(C)C(=O)C[C@H](C)NC1=O [DP-770] (cyclo(A[NMeV][NMeL]I[β3hA][NMeA][NMeL][NMeL]TF[NMeA])) | – | –
7 | 47 ×10⁻⁶ cm/s | 228 µL/min/mg | CC[C@H](C)[C@H]1C(=O)N[C@@H](COC(C)(C)C)C(=O)N(C)[C@@H](Cc2ccccc2)C(=O)N(C)[C@@H](C(C)C)C(=O)N[C@@H](C)CC(=O)N(C)[C@@H](C)C(=O)N(C)[C@@H](Cc2ccccc2)C(=O)N[C@@H](CC(C)C)C(=O)N(C)[C@@H](CC(C)C)C(=O)N[C@@H]([C@@H](C)O)C(=O)N(C)CC(=O)N1C [DP-771] (cyclo(L[NMeL]T[Sar][NMeI]S(tBu)[NMeF][NMeV][β3hA][NMeA][NMeF])) | – | –
8 | 46 ×10⁻⁶ cm/s | 17 µL/min/mg | CC[C@H](C)[C@H]1C(=O)N(C)[C@@H](CC(C)C)C(=O)N[C@@H](C)C(=O)N(C)[C@@H](CC(C)C)C(=O)N(C)[C@@H](Cc2ccccc2)C(=O)N[C@@H]([C@@H](C)O)C(=O)N(C)[C@@H](Cc2ccccc2)C(=O)N(C)[C@@H](CC(C)C)C(=O)N(C)[C@@H](C)C(=O)N[C@@H](C)CC(=O)N[C@H](C(C)C)C(=O)N1C [DP-773] (cyclo(A[NMeL][NMeF]T[NMeF][NMeL][NMeA][β3hA][dV][NMeI][NMeL])) | – | –
9 | 26 ×10⁻⁶ cm/s | 71 µL/min/mg | CCCCCC[C@@H]1NC(=O)[C@H](CC(C)C)N(C)C(=O)[C@@H]2CCCN2C(=O)[C@H](C)N(C)C(=O)[C@H](Cc2ccccc2)N(C)C(=O)[C@H](Cc2ccccc2)N(C)C(=O)CN(C)C(=O)[C@H]([C@@H](C)O)NC(=O)[C@H](C)N(C)C(=O)C[C@H](C)NC(=O)[C@H](C(C)C)N(C)C1=O [DP-774] (cyclo([Aoc(2)][NMeV][β3hA][NMeA]T[Sar][NMeF][NMeF][NMeA]P[NMeL])) | – | –
10 | 37 ×10⁻⁶ cm/s | 119 µL/min/mg | CCCCCC[C@@H]1NC(=O)[C@H](Cc2ccccc2)N(C)C(=O)[C@H](C)N(C)C(=O)C[C@H](C)NC(=O)[C@H](C(C)C)N(C)C(=O)[C@H](Cc2ccccc2)N(C)C(=O)[C@H](COC(C)(C)C)NC(=O)[C@H](C)N(C)C(=O)CN(C)C(=O)[C@H]([C@@H](C)O)NC(=O)[C@H](CC(C)C)N(C)C1=O [DP-775] (cyclo([Aoc(2)][NMeL]T[Sar][NMeA]S(tBu)[NMeF][NMeV][β3hA][NMeA][NMeF])) | – | –
11 | 18 ×10⁻⁶ cm/s | 44 µL/min/mg | CC[C@H](C)[C@@H]1NC(=O)[C@H](CC(C)C)N(C)C(=O)[C@H](CC(C)C)N(C)C(=O)[C@H](C)NC(=O)[C@H](CC(C)C)N(C)C(=O)[C@H](Cc2ccc(C(F)(F)F)cc2)NC(=O)[C@H]([C@@H](C)O)NC(=O)[C@H](CC(C)C)N(C)C(=O)[C@H](CC(C)C)N(C)C(=O)[C@H](C)N(C)C(=O)C[C@H](C)NC1=O [DP-776] (cyclo(A[NMeL][NMeL]I[β3hA][NMeA][NMeL][NMeL]T[Phe(4-CF3)][NMeL])) | – | –
12 | – | – | CC(C)C[C@H]1C(=O)N(C)[C@@H](CC(C)C)C(=O)N[C@@H]([C@@H](C)O)C(=O)N(C)[C@@H](Cc2ccccc2)C(=O)NCC(=O)N(C)[C@@H](C(C)C)C(=O)N[C@@H](Cc2ccccc2)C(=O)N[C@@H](C)CC(=O)N(C)CCC(=O)N[C@@H](COC(C)(C)C)C(=O)N1C [DP-777] (cyclo(F[β3hA][NMeβAla]S(tBu)[NMeL][NMeL]T[NMeF]G[NMeV])) | 39 ×10⁻⁶ cm/s | 428 µL/min/mg
13 | 26 ×10⁻⁶ cm/s | 139 µL/min/mg | CC[C@H](C)[C@@H]1NC(=O)[C@H](CC(C)C)N(C)C(=O)[C@H](C)NC(=O)CCCN(C)C(=O)C[C@H](C)NC(=O)[C@H]([C@@H](C)O)NC(=O)[C@H](Cc2ccccc2)NC(=O)[C@H](C(C)C)N(C)C(=O)[C@H](C)N(C)C(=O)[C@H](Cc2ccccc2)N(C)C1=O [DP-778] (cyclo(A[NMeL]I[NMeF][NMeA][NMeV]FT[β3hA][NMeGABA])) | – | –
14 | 37 ×10⁻⁶ cm/s | 78 µL/min/mg | CC[C@H](C)[C@H]1C(=O)N[C@@H](COC(C)(C)C)C(=O)N[C@@H](C)CC(=O)N(C)[C@@H](C)C(=O)N(C)[C@@H](Cc2ccccc2)C(=O)N(C)CC(=O)N(C)[C@@H](CC(C)C)C(=O)N[C@@H]([C@@H](C)O)C(=O)N(C)[C@@H](C)C(=O)N(C)[C@@H](CC(C)C)C(=O)N1C [DP-779] (cyclo([NMeA][NMeF][Sar][NMeL]T[NMeA][NMeL][NMeI]S(tBu)[β3hA])) | – | –
15 | 41 ×10⁻⁶ cm/s | 249 µL/min/mg | CC[C@H](C)[C@@H]1NC(=O)[C@H](CC(C)C)N(C)C(=O)[C@H](Cc2ccccc2)N(C)C(=O)[C@@H](C(C)C)NC(=O)C[C@H](C)NC(=O)[C@H](CC(C)C)N(C)C(=O)[C@H](C)N(C)C(=O)[C@H]([C@@H](C)O)NC(=O)[C@H](Cc2ccccc2)N(C)C(=O)[C@H](C)N(C)C1=O [DP-780] (cyclo(I[NMeA][NMeF]T[NMeA][NMeL][β3hA][dV][NMeF][NMeL])) | – | –
16 | 29 ×10⁻⁶ cm/s | 142 µL/min/mg | CC[C@H](C)[C@@H]1NC(=O)[C@H](CC(C)C)N(C)C(=O)[C@H](Cc2ccccc2)N(C)C(=O)[C@@H](C(C)C)NC(=O)C[C@H](C)NC(=O)[C@H](CC(C)C)N(C)C(=O)[C@H](C)N(C)C(=O)[C@H]([C@@H](C)O)NC(=O)[C@H](Cc2ccccc2)N(C)C(=O)[C@H](CC(C)C)N(C)C1=O [DP-781] (cyclo(I[NMeL][NMeF]T[NMeA][NMeL][β3hA][dV][NMeF][NMeL])) | – | –
17 | 10 ×10⁻⁶ cm/s | 127 µL/min/mg | CC[C@H](C)[C@@H]1NC(=O)[C@H](CC(C)C)N(C)C(=O)[C@H](Cc2ccccc2)N(C)C(=O)[C@@H](C(C)C)NC(=O)C[C@H](C)NC(=O)[C@H](CC(C)C)N(C)C(=O)[C@H](C)N(C)C(=O)[C@H]([C@@H](C)O)NC(=O)[C@H](Cc2cccc(Cl)c2)N(C)C(=O)[C@H](CC(C)C)N(C)C1=O [DP-782] (cyclo(I[NMeL][NMePhe(3-Cl)]T[NMeA][NMeL][β3hA][dV][NMeF][NMeL])) | – | –
18 | 31 ×10⁻⁶ cm/s | 269 µL/min/mg | CC[C@H](C)[C@@H]1NC(=O)[C@H](C)N(C)C(=O)[C@@H](C)N(C)C(=O)C[C@H](C)NC(=O)[C@H](CC(C)C)N(C)C(=O)[C@H](C)N(C)C(=O)[C@H](Cc2ccccc2)N(C)C(=O)[C@H]([C@@H](C)O)NC(=O)[C@H](Cc2ccccc2)N(C)C(=O)[C@H](CC(C)C)N(C)C1=O [DP-783] (cyclo(I[NMeL][NMeF]T[NMeF][NMeA][NMeL][β3hA][dNMeA][NMeA])) | – | –
19 | 46 ×10⁻⁶ cm/s | 97 µL/min/mg | CC(C)C[C@@H]1NC(=O)[C@H](Cc2ccccc2)NC(=O)[C@H](CC(C)C)N(C)C(=O)[C@H](Cc2ccccc2)NC(=O)[C@@H](C)N(C)C(=O)C[C@H](C)NC(=O)[C@H](Cc2ccccc2)N(C)C(=O)CNC(=O)[C@H]([C@@H](C)O)NC(=O)[C@H](CC(C)C)NC1=O [DP-784] (cyclo(FLLTG[NMeF][β3hA][dNMeA]F[NMeL])) | – | –
20 | 29 ×10⁻⁶ cm/s | 193 µL/min/mg | CC(C)C[C@H]1C(=O)N(C)[C@@H](Cc2ccccc2)C(=O)NCC(=O)N[C@@H](C)CC(=O)N(C)CCCC(=O)N[C@@H]([C@@H](C)O)C(=O)N(C)[C@@H](C)C(=O)N(C)[C@@H](Cc2ccccc2)C(=O)N[C@@H](COC(C)(C)C)C(=O)N1C [DP-785] (cyclo(G[β3hA][NMeGABA]T[NMeA][NMeF]S(tBu)[NMeL][NMeF])) | – | –
